For assay [1], the target named is T1, EPAC2 (amino acids 280–993) (Mus musculus, UniProt Q9EQZ6).
T1 construct: EPAC2 (amino acids 280–993); made in house; host or cells: bacteria
T1 sequence (Q9EQZ6 280-993 isoform Q9EQZ6-3): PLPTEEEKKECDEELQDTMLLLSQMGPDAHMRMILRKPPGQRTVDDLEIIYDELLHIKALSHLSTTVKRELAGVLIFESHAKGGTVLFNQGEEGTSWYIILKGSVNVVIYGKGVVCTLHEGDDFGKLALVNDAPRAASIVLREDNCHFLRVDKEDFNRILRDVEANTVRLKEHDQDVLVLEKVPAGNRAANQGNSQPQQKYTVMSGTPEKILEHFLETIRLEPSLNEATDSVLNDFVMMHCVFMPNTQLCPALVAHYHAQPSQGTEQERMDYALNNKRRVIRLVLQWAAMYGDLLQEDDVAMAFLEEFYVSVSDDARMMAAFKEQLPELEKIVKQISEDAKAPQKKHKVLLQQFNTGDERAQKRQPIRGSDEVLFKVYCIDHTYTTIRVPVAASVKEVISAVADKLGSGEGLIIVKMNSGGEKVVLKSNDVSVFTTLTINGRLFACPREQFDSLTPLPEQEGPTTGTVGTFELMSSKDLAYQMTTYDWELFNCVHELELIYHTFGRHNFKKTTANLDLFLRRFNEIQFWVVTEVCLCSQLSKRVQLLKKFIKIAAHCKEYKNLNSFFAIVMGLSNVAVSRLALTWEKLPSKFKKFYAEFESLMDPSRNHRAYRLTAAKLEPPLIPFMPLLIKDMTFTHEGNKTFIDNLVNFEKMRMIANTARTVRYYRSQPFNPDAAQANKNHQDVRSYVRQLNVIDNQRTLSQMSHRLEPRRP
The experiment in a line: In vitro GEF activity assay (MANT-GDP dissociation from Rap1), EPAC2. It counts as biochemical. To be noted: for pIC50: IC50, GEF Inhibition (with cAMP), 50 μM cAMP; for GEF Activation (no cAMP), AC50 / induced EPAC2 activity: absence of cAMP, N/A = inability to promote GEF activity of EPAC2. The method, then:
EPAC1 and EPAC2 in vitro GEF activities were calculated as previously described. Briefly, recombinant EPAC1 (amino acids 149–881) or EPAC2 (amino acids 280–993) were incubated at 100 nM with recombinant Rap1 (200 nM) preloaded with the fluorescent GDP analogue 2′/3′-O-(N-Methylanthraniloyl)guanosine 5-diphosphate (MANT-GDP) in the presence of 20 μM GDP and then the fluorescence intensity was measured at 360/450 nm (ex/em) over time. […] AC50 or IC50 values were determined from the plots of kobs against the concentration of the agonist and antagonist, respectively Table 1.

The test system of assay [2] is protein kinase A (PKA). The assay is described as follows: PKA kinase activity assay in HEK293T cell extracts. It counts as biochemical. Conditions: 1 mM cAMP, compound 0.1 to 100 µM. The method, then: PKA activity was measured directly in cell extracts using the PKA Kinase Activity Assay Kit (Abcam) following the manufacturer's instructions. […] Cells were washed in ice-cold PBS containing phosphatase inhibitors, scrapped into Eppendorf tubes and centrifuged at 200 × g at 4 °C for 5 minutes. Supernatants were discarded and the cell pellet was re-suspended in Complete Lysis Buffer containing 1 mM DTT, 1 mM PMSF and protease inhibitor cocktail (Roche) and then incubated for 10 minutes on ice (on the rocking platform) followed by vortex and centrifugation at […] at 4 °C for 20 minutes. Cell extracts were then transferred to fresh Eppendorf tubes, assayed for protein content and then stored at -80 °C. […] Next, 10 μl of ATP was added to each well and incubated at 30 °C for 90 min, with gentle shaking. The reaction was stopped by aspirating the contents of each well and then 40 μl of PKA phosphospecific substrate antibody was added to each well and then the plate was covered with plastic wrap and incubated at room temperature for 60 min (with gentle shaking every 20 min). […] Fluorescence was then measured at 480/530 nm. […] PKA activity was then measured in the cell extracts using an ELISA assay according to the manufactures instructions. […]

Each structure is given as a SMILES string. pIC50, pKd: −log10 of the molar value. “And” between values parts separate entries of the source, which are not always exact repeats. Equal values may be shown once.

By pIC50 is commonly meant −log10 of the IC50, conventionally taken in molar units.

In the case of `O=C(COc1ccc2ccccc2c1)NS(=O)(=O)c1ccccc1` [I178, N-(benzenesulfonyl)-2-(naphthalen-2-yloxy)acetamide], in assay [1], the pIC50 was 3.60 and ~3.60; the “GEF Activation (no cAMP), AC50 / induced EPAC2 activity” value is given as “very weak”.
On to `Cc1ccc(S(=O)(=O)NC(=O)COc2ccc3ccccc3c2)c(C)c1` [I942, N-(2,4-dimethylbenzenesulfonyl)-2-(naphthalen-2-yloxy)acetamide], for which, in assay [1], the negative-log IC50 (pIC50) was 3.96 and ~3.96; the “GEF Activation (no cAMP), AC50 / induced EPAC2 activity” value is “very weak”. For the same molecule, the pKd in assay [1] (read-out: affinity for EPAC2 280–993, approximated) is ~5.30. Moreover, the “effect on PKA activity induced by cAMP” value in assay [2] is “did not significantly affect PKA activity”.
